Results published in patent US7968525B1, “Use of RNA interference to validate new termiticide target sites and a method of termite control” (University of Florida Research Foundation, Inc., priority 2007, dated 2011).

Experiments:
R. flavipes workers [1] = assay: dsRNA + JH III feeding assay, lethal times by probit analysis; type: in vivo, Reticulitermes flavipes; settings: JH III alone
Protocol: Six additional developmental genes were targeted by combined dsRNA+JH III treatments: broad, farnesoic acid methyl transferase (FAMET-2), two family 15 cytochrome P450s (Cyp15-1, Cyp15-2), and two vitellogenin genes (Vit-1, Vit-2). dsRNAs corresponding to internal 500 base pair fragments of all six genes (see FIG. 22) were prepared as described under “description of the preferred embodiment”. Twenty μg of dsRNA was applied in 50 μL nanopure water to a penny-sized ([…]) paper disk. The disk was placed in a 5 cm tissue culture dish and 15 worker termites were added. Assays ran for 25 days at 60% relative humidity and 27 degrees C., with water being replenished and mortality/presoldier formation scored every 5th day.
LT50 and LT90 were determined from time-mortality data using probit analysis (SAS software; Cary, N.C.). In this context, the terms LT50 and LT90 refer to the estimated times at which 50% and 90% mortality occurs in response to the various RNAi treatments relative to JH III treatments alone (FIG. 23). Applying the six dsRNAs alone had no significant effects on survivorship. The LT50 and LT90 values for JH III alone were 34.5 and 65.7 days, respectively (as a result of fitness costs from elevated presoldier levels).

R. flavipes workers [2] = assay: Hex-2 dsRNA feeding bioassay with and without JH (morphology, lethal molts); type: in vivo, Reticulitermes flavipes; settings: feeding on Hex-2 dsRNA alone or JH alone
Protocol: dsRNA Feeding bioassays. dsRNA-mediated gene silencing was accomplished using voluntary feeding bioassays. Termites were pre-starved for 12 h to standardize their hunger status before the assay. The bioassay was run by placing groups of 15 worker termites into 35-mm tissue culture dishes that contained 18 mm diam. treated paper towel disks. Multiple and single dose dsRNA regimes were tested. All assays were carried out for 24-d. Paper disk moisture was monitored every other day. Every 8th day, old paper disks were replaced with new ones. These new paper disks were treated exactly the same as previous ones. Feeding (mg/dish) was determined by comparing weights of paper disks before and after confinement with termites, whereas body weight (mg/termite) was measured by comparing termite weights before and after 8-day paper consumption and then by correcting for the number of live termites at the time of sampling. Paper disks were dried in a drying oven before weighing. Mortality, paper consumption, body weight change, and/or presoldier formation were documented every 8th day. The complete experimental design included two colonies (Colony-1 and -2), with three replicate dishes per treatment per colony.
For Cell-1 dsRNA feeding bioassays, the experimental design included two treatments (triple and single dose Cell-1 dsRNA) and a control (3 doses of dsRNA buffer; Ambion; Austin, Tex.). […]

termite = settings: bioassays, earlier work; cited from earlier work
beta glucosidase = settings: in vitro enzyme assays, earlier work; cited from earlier work
exoglucanases = settings: in vitro enzyme assays, earlier work; cited from earlier work

| Compound | LT50 (R. flavipes workers [1]; time to 50% mortality) | LT90 (R. flavipes workers [1]; time to 90% mortality) | caste phenotype induced (R. flavipes workers [2]) | termite mortality (termite) | inhibition of beta glucosidase activity (beta glucosidase) | inhibition of exoglucanases activity (exoglucanases) |
| --- | --- | --- | --- | --- | --- | --- |
| COC(=O)/C=C(\C)CC/C=C(\C)CC[C@H]1OC1(C)C [JH III, juvenile hormone III] | 34.5 days | 65.7 days | wildtype caste phenotypes | – | – | – |
| fluromethyl cellobiose [FMCB] | – | – | – | only moderate termite mortality | Good to excellent inhibition | Good to excellent inhibition |
| OC[C@@H]1[C@@H](O[C@@H]2O[C@H](CO)[C@@H](O)[C@H](O)[C@H]2O)[C@H](O)[C@@H](O)c2nccn21 [CBI, cellobioimidazole] | – | – | – | only moderate termite mortality | Good to excellent inhibition | Good to excellent inhibition |
